Results: patent publication US9340577B2, “HLA binding motifs and peptides and their uses” (priority 1992, dated 2016)
pIC50: −log10 of the molar value. No end group written: not given here.

Columns and labels:
Test in all cases: biochemical
Assay type in all cases: binding
A31 (A*3101) = A31 (A*3101) (Homo sapiens, UniProt P04439, A270S/D185E/E176V/E277Q/F33T/G231S/G80R/H175R/I121M/I218V/I322F/K168Q/L300P/L318F/M331R/P217A/Q94H/R138Q/T323A/T345S/T97I/V358M)
A*3301 = A*3301 (Homo sapiens, UniProt P04439, A270S/D185E/E176V/E277Q/E87N/F33T/G231S/H175R/I121M/I218V/I322F/K168Q/K210R/L300P/L318F/M331R/P217A/Q86R/Q94H/R138Q/T323A/T345S/T97I/V358M/Y195H)
HLA-A3.2 (A*0301) = HLA-A3.2 (A*0301) (Homo sapiens, UniProt P04439)
A*6801 = A*6801 (Homo sapiens, UniProt P04439, A269V/D185E/E176V/E277Q/E87N/F33Y/G231S/I121M/I166T/I218V/L180W/L300P/L318F/N151K/P208A/P217A/Q86R/R169H/T345S)
HLA-A11 (A*1101) = HLA-A11 (A*1101) (Homo sapiens, UniProt P04439, A114D/D185E/E176A/F33Y/L180Q/S129P/T187R)

Sequence	pIC50 (A31 (A*3101))	pIC50 (A*3301)	pIC50 (HLA-A3.2 (A*0301))	pIC50 (A*6801)	pIC50 (HLA-A11 (A*1101))
VTIRVAGQVK [Peptide 1516.04]	5.34	< 4.70	7.28	7.28	7.68
QVVPAYNISK [Peptide 1589.06]	5.18	< 4.70	6.49	8.12	7.82
AILGHIVRPR [Peptide 9017.0226]	8.15	6.62	7.31	6.63	6.80
QSNPYPEPK [Peptide 9017.0070]	6.29	< 4.70	5.98	6.06	7.34
SSIVGWPAVR [Peptide 9017.0185]	7.59	6.19	5.50	7.85	7.66
SQIEHWKLIR [Peptide 88.0213]	6.29	< 4.70	4.78	5.88	7.07
QTCALYWFR [Peptide 88.0361]	7.29	7.72	5.71	7.74	7.19
LQLALEALNK [Peptide 88.0227]	5.44	< 4.70	5.96	< 4.70	7.68
KISEYRHYCY [Peptide 78.0082]	5.31	5.63	6.82	5.70	6.79
LVYQDTILWK [Peptide 9012.0221]	< 4.70	< 4.70	6.70	6.81	7.49
LLYGAANTGK [Peptide 1587.12]	5.17	< 4.70	8.48	7.12	7.80
VTVKIGGELK [Peptide 1516.03]	< 4.70	< 4.70	5.39	7.48	7.41
AACWRSRRR [Peptide 78.0322]	6.39	4.76	5.25	< 4.70	4.73
QVVPALSVSK [Peptide 1589.13]	5.05	< 4.70	6.08	7.92	7.60
KTASVGTPK [Peptide 1589.27]	7.36	< 4.70	7.96	8.07	7.89
GLGISYGRK [Peptide 1577.25]	< 4.70	< 4.70	7.19	< 4.70	5.67
ALFTAQEAK [Peptide 88.0323]	5.57	4.79	7.55	6.22	7.89
QVVPPINISK [Peptide 1589.23]	5.81	< 4.70	5.89	7.85	7.96
HLFTYSWYK [Peptide 76.0164]	7.46	6.86	8.31	7.72	8.11
STCMGGMNR [Peptide 1556.61]	6.80	4.75	6.55	5.79	5.96
KLFLQGTPK [Peptide 88.0381]	7.29	< 4.70	7.82	6.15	7.92
HLFDYSWYK [Peptide 76.0165]	7.44	7.21	8.39	8.68	9.00

Sequence	pIC50 (A31 (A*3101))	pIC50 (A*3301)	pIC50 (HLA-A3.2 (A*0301))	pIC50 (A*6801)	pIC50 (HLA-A11 (A*1101))
GSLQYLALK [Peptide 9017.0096]	7.14	4.84	7.77	5.00	8.18
GTFKCSAGK [Peptide 88.0373]	6.21	4.74	7.64	7.09	7.85
NVAPIVHLK [Peptide 1589.21]	< 4.70	< 4.70	5.20	8.62	6.40
RLKAICIEK [Peptide 1587.01]	7.70	< 4.70	7.37	< 4.70	6.28
KTDEGGDWK [Peptide 88.0380]	< 4.70	4.88	5.44	5.00	6.39
RLECVLMYK [Peptide 1589.12]	7.36	6.08	8.06	5.44	7.68
KLVEDRWNK [Peptide 9017.0107]	7.21	< 4.70	6.58	4.75	6.99
AQIEHWKLTR [Peptide 88.0226]	6.53	< 4.70	5.68	5.54	7.20
TVSATQLVK [Peptide 1589.08]	4.84	< 4.70	8.19	7.51	8.36
EFTAFLGAFK [Peptide 88.0167]	< 4.70	7.46	5.33	6.71	6.53
ITVSAELPR [Peptide 1556.18]	5.16	5.06	< 4.70	7.60	6.13
LSALKLFLK [Peptide 1587.39]	7.02	5.74	6.02	5.66	7.51
FTAFLVAFK [Peptide 88.0389]	6.18	7.12	7.35	7.64	7.82
VTIKIGGQIR [Peptide 1516.05]	5.94	< 4.70	4.89	7.34	6.41
RQMSMGQWIK [Peptide 1587.35]	7.32	< 4.70	7.28	5.65	8.22
STVSVGTAK [Peptide 1589.09]	5.75	4.79	7.47	8.00	8.22
SVAALYWYR [Peptide 88.0341]	8.43	9.06	7.49	8.39	8.35
AIVVWTIAY [Peptide 9017.0115]	5.50	5.28	6.92	5.14	8.04
MQYVAWKYIY [Peptide 88.0233]	< 4.70	< 4.70	5.72	4.92	7.28
LQGKLYYKFK [Peptide 88.0184]	5.43	4.79	6.14	< 4.70	6.89
HLFRYSWYK [Peptide 76.0171]	7.21	7.08	7.68	7.57	7.80
AVNKMFCQLAK [Peptide 1556.46]	6.55	< 4.70	7.26	5.88	8.00
